Test systems include DMS-114; DMS-273; HOP-18; KM-20L2; LXFL 529; M19-MEL; RXF 631; SNB-78; XF498.
What all share (assay): NCI tumour cell line growth inhibition, 48 h

SMILES strings stand for the structures. “And” between values parts separate entries of the source, which are not always exact repeats. Identical values can stand only once.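 All cell lines were grown in 96-well plates and treated with compound for 48 hours. GI50: concentration for 50% inhibition of growth.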 The source made the active and inactive calls. Rule as the data show it: active = GI50 up to about 1.1 µM and inactive = higher.

In the case of `CN(C)CCNC(=O)c1cccc2cc3c(Cl)cccc3nc12`, the GI50 in the experiment with DMS-114 is 1.35 µM (inactive); with DMS-273, 0.562 µM (active); in the experiment with HOP-18 it was 4.51 µM (inactive); with KM-20L2, 1.54 µM (inactive); in the experiment on LXFL 529, 1.67 µM (inactive); in the experiment with M19-MEL, 1.33 µM (inactive). In addition, the GI50 was 2.55 µM (inactive) with RXF 631, 2.11 µM (inactive) in the experiment with SNB-78 and 0.394 µM (active) in the experiment with XF498.

Take `O=S1(=O)NN=C(NCc2ccc(F)cc2)c2ccccc21`: the GI50 with DMS-273 is 47.1 µM (inactive); in the experiment with KM-20L2, > 100 µM (inactive); with LXFL 529 it was 27.7 µM (inactive); in the experiment on M19-MEL, 40.4 µM (inactive); in the experiment on SNB-78, 55.6 µM (inactive); with XF498, 65 µM (inactive).

On to `CC1=C(C)C(=O)c2c(cc3ccccn23)C1=O`, for which the GI50 is 12.9 µM (inactive) in the experiment on DMS-114; 16.6 µM (inactive) in the experiment with DMS-273; 33.9 µM (inactive) with HOP-18; 15.3 µM (inactive) in the experiment with LXFL 529; 1.87 µM (inactive) with M19-MEL; 3.12 µM (inactive) with RXF 631. For the same molecule, the GI50 in the experiment on SNB-78 was 23.1 µM (inactive).

Turning to `COc1cc([C@@H]2c3cc4c(cc3[C@@H](OC(=O)c3cccc(N)c3)C3COC(=O)[C@@H]32)OCO4)cc(OC)c1O` (some centres undefined), the GI50 with DMS-114 was 3.66 µM (inactive); in the experiment with DMS-273 it was 0.525 µM (active); in the experiment with KM-20L2, 1.41 µM (inactive); in the experiment on LXFL 529, 0.76 µM (active); with M19-MEL, 5.68 µM (inactive); in the experiment with SNB-78, 64.4 µM (inactive). Besides, the GI50 in the experiment on XF498 is 0.863 µM (active).

`CC(C)(CCl)NC(=O)c1cccc(C(=O)NC(C)(C)CCl)n1`: the GI50 in the experiment with DMS-114, in the experiment on DMS-273, with KM-20L2, with LXFL 529, in the experiment on M19-MEL and with RXF 631 was > 100 µM (inactive) throughout. Also, the GI50 in the experiment with SNB-78 was > 100 µM (inactive).

On to `O=[N+]([O-])c1ccccc1S(=O)(=O)c1ccccc1[N+](=O)[O-]`, for which the GI50 with DMS-114 is > 90.2 µM (inactive); in the experiment on DMS-273, > 100 µM (inactive); in the experiment with HOP-18, > 83.2 µM (inactive); in the experiment on KM-20L2 it was > 100 µM (inactive); in the experiment on LXFL 529, > 100 µM (inactive); with M19-MEL, > 100 µM (inactive). Further, the GI50 is 16.4 µM (inactive) in the experiment with SNB-78 and 30.7 µM (inactive) in the experiment on XF498.

Turning to `Cc1cn2c(=O)c3ccccc3nc2s1`, the GI50 in the experiment with DMS-114, in the experiment with DMS-273, with KM-20L2, in the experiment with LXFL 529, in the experiment on M19-MEL and with SNB-78 was > 100 µM (inactive) throughout.

Take `COc1ccccc1C(O)(c1ccccc1)C(O)(c1ccccc1)c1ccccc1OC` (centres undefined): the GI50 with DMS-114, with DMS-273, in the experiment on HOP-18, in the experiment on KM-20L2, with LXFL 529 and with M19-MEL was > 100 µM (inactive) in each case. The GI50 in the experiment on RXF 631, in the experiment on SNB-78 and in the experiment on XF498 was > 100 µM (inactive) throughout.

Consider `CN=[S+]([O-])(c1ccccc1)c1ccccc1`, for which the GI50 with DMS-114, in the experiment with DMS-273, in the experiment on HOP-18, with KM-20L2, with M19-MEL and in the experiment on SNB-78 was > 100 µM (inactive) in each case. The GI50 in the experiment with XF498 was > 100 µM (inactive).

Regarding `CCOC(=O)C1(Cc2ccc3ccccc3c2)CCCCCN1` (centres undefined), the GI50 in the experiment on DMS-114 was 26.5 µM (inactive); in the experiment on DMS-273, 18.9 µM (inactive); in the experiment with HOP-18, 25.5 µM (inactive); with KM-20L2, 22.5 µM (inactive); in the experiment with LXFL 529 it was 34.1 µM (inactive); in the experiment on M19-MEL it was 31.1 µM (inactive). The GI50 in the experiment on SNB-78 was 64.3 µM (inactive); in the experiment on XF498 it was 16.2 µM (inactive).

Take `c1ccc([P+](c2ccccc2)(c2ccccc2)C2Sc3ccccc3S2)cc1`: the GI50 with DMS-114 is 12.7 µM (inactive); in the experiment on DMS-273, 18.1 µM (inactive); in the experiment with KM-20L2 it was 23.4 µM (inactive); in the experiment on LXFL 529 it was 12.6 µM (inactive); in the experiment with M19-MEL it was 15.1 µM (inactive); in the experiment with RXF 631 it was 16 µM (inactive). In addition, the GI50 with SNB-78 was 18.7 µM (inactive); in the experiment on XF498 it was 17.3 µM (inactive).

Take `NC(=S)N/N=C(\CCC(=O)Nc1ccccc1[N+](=O)[O-])CC(=O)c1ccco1`: the GI50 in the experiment on DMS-114, in the experiment on DMS-273, with HOP-18, in the experiment with KM-20L2, with LXFL 529 and with M19-MEL was > 100 µM (inactive) each time. Also, the GI50 in the experiment with RXF 631, with SNB-78 and with XF498 was > 100 µM (inactive) in each case.

As to `NC1=NC2=c3ccccc3=C(c3cnccn3)C2(c2cnccn2)c2ccccc21` (centres undefined), the GI50 with DMS-114 was 50.4 µM (inactive); in the experiment on DMS-273, > 100 µM (inactive); in the experiment on HOP-18, > 100 µM (inactive); with KM-20L2, > 100 µM (inactive); in the experiment with M19-MEL, > 100 µM (inactive); with SNB-78, 49.1 µM (inactive). In the experiment on XF498, the GI50 is 36.7 µM (inactive).

Regarding `CCOC(=O)N1Cc2ccoc2C1`, the GI50 in the experiment on DMS-114, in the experiment with DMS-273, with HOP-18, with KM-20L2, in the experiment with LXFL 529 and in the experiment on M19-MEL was > 100 µM (inactive) each time.

For `CCOC(=O)c1cn(CC)c2cc3c(cc2c1=O)SCS3`, the GI50 with DMS-114 was > 100 µM (inactive); with DMS-273, > 100 µM (inactive); in the experiment with HOP-18 it was 80 µM (inactive); in the experiment with KM-20L2, > 100 µM (inactive); with LXFL 529, > 100 µM (inactive); in the experiment with M19-MEL, > 100 µM (inactive). In addition, in the experiment with RXF 631, the GI50 is > 100 µM (inactive).

Turning to `O=C(N/N=C1\C(=O)N(c2nccs2)C(=O)C(=O)C1c1nc2ccccc2s1)c1ccccc1O` (centres undefined), the GI50 was 28.3 µM (inactive) in the experiment on DMS-114; 31.8 µM (inactive) in the experiment with DMS-273; 10.1 µM (inactive) with HOP-18; > 100 µM (inactive) with KM-20L2; 32 µM (inactive) in the experiment with LXFL 529; 87.1 µM (inactive) with M19-MEL. For the same molecule, the GI50 with SNB-78 was 33.3 µM (inactive); in the experiment with XF498 it was 27.1 µM (inactive).

As for `Cc1nc2c(nc1C)C(=O)C1=C(C2=O)C2C=CC1CC2`, the GI50 in the experiment on DMS-114 was 1.75 µM (inactive); in the experiment with DMS-273 it was 14.6 µM (inactive); in the experiment with HOP-18 it was 16.4 µM (inactive); with KM-20L2 it was 23.3 µM (inactive); in the experiment on LXFL 529, 1.75 µM (inactive); with M19-MEL, 1.75 µM (inactive). In addition, the results for the GI50 in the experiment on RXF 631, in the experiment with SNB-78 and in the experiment with XF498 were 6.15 µM (inactive), 3.21 µM (inactive) and 5.65 µM (inactive), respectively.

Consider `O=C(Nc1nc2ncn(CCOC(=O)c3ccccc3)c2c(=S)[nH]1)c1ccccc1`, for which the GI50 was 64.4 µM (inactive) in the experiment on DMS-114; 50.9 µM (inactive) in the experiment on DMS-273; > 100 µM (inactive) in the experiment on HOP-18; > 100 µM (inactive) with KM-20L2; 49.3 µM (inactive) in the experiment on LXFL 529; 50.4 µM (inactive) in the experiment with M19-MEL. In addition, the GI50 with SNB-78 was 44.1 µM (inactive).

With `CCOC(=O)C1(C)CCCCC(=O)N1` (centres undefined), the GI50 in the experiment with DMS-114 is > 100 µM (inactive); in the experiment on DMS-273, > 100 µM (inactive); in the experiment on HOP-18, 64.3 µM (inactive); with KM-20L2, > 100 µM (inactive); in the experiment with LXFL 529, > 100 µM (inactive); in the experiment with M19-MEL, > 100 µM (inactive). Further, the GI50 in the experiment with RXF 631, in the experiment on SNB-78 and with XF498 was > 100 µM (inactive) throughout.

Take `CC1C2=CC=C(O2)C(C)(C)C2=CC=C(O2)C(C)(C)C2=CC=C(O2)C(C)(C)C2=CC=C1O2`: the GI50 with DMS-273, in the experiment on HOP-18, in the experiment on KM-20L2, in the experiment on LXFL 529, in the experiment with M19-MEL and in the experiment with SNB-78 was > 100 µM (inactive) each time. Further, the GI50 in the experiment on XF498 is > 100 µM (inactive).

Consider `COC(=O)C(=O)C(C#N)c1nc2ccccc2s1` (centres undefined), for which the GI50 in the experiment on DMS-114, in the experiment on DMS-273, in the experiment on KM-20L2, with LXFL 529, in the experiment on M19-MEL and with RXF 631 was > 100 µM (inactive) throughout. In addition, the GI50 in the experiment with SNB-78 and in the experiment on XF498 was > 100 µM (inactive) each time.

Regarding `N#C/C(=C\c1ccc(O)cc1)C(N)=O`, the GI50 with DMS-114, in the experiment with DMS-273, in the experiment with KM-20L2, with LXFL 529, in the experiment on M19-MEL and in the experiment on RXF 631 was > 100 µM (inactive) in each case. The GI50 in the experiment on SNB-78 is > 100 µM (inactive); with XF498, > 100 µM (inactive) and > 88.5 µM (inactive).

Turning to `CCCc1cc(-c2ccc(-c3cc(CCC)c(C=O)[nH]3)s2)[nH]c1C=O`, the GI50 was 8.77 µM (inactive) with DMS-114; 86.1 µM (inactive) with DMS-273; 53 µM (inactive) with HOP-18; 76.4 µM (inactive) with LXFL 529; 4.53 µM (inactive) in the experiment with M19-MEL; > 100 µM (inactive) with SNB-78. Moreover, the GI50 in the experiment with XF498 is > 100 µM (inactive).

On to `Cc1cc(C(O)CCCc2ccccc2)cc(C)c1O` (centres undefined), for which the GI50 is 26.2 µM (inactive) in the experiment on DMS-114; > 100 µM (inactive) in the experiment on HOP-18; > 100 µM (inactive) with KM-20L2; 47.5 µM (inactive) in the experiment on LXFL 529; 37.7 µM (inactive) in the experiment with M19-MEL; 51.5 µM (inactive) in the experiment with RXF 631. Besides, in the experiment on SNB-78, the GI50 was 34.9 µM (inactive).

As to `CC1CN1c1c(C(=O)/C=C/c2ccc(Cl)cc2)c(-c2ccccc2)nn(C)c1=O` (centres undefined), the GI50 is 3.65 µM (inactive) in the experiment on DMS-114; 2.62 µM (inactive) in the experiment with DMS-273; 3.92 µM (inactive) in the experiment on HOP-18; 3.26 µM (inactive) in the experiment on KM-20L2; 2.13 µM (inactive) in the experiment with LXFL 529; 3.14 µM (inactive) in the experiment with M19-MEL. The results for the GI50 in the experiment on SNB-78 and in the experiment on XF498 were 2.21 µM (inactive) and 2.99 µM (inactive), respectively.

The record behind these values is ChEMBL document CHEMBL1201862, “PubChem BioAssay data set” (2004).
